molecular target: T1, human KV 1.5 (IKur) (Homo sapiens, UniProt P22460); experiment: block of IKur current in patch clamped L-929 cells expressing human Kv1.5; type: cell-based; settings: 0.3 μM; patch clamped mammalian L-929 cells stably expressing human Kv1.5
T1 construct: expressed in transfected cells
Text: Assays to determine the degree of activity of a compound as an IKur inhibitor are well known in the art and are described in references such as J. Gen. Physiol., 101(4):513-543 (April 1993), and Br. J. Pharmacol., 115(2):267-274 (May 1995).
Synders, D. J. et al., “A rapidly activating and slowly inactivating potassium channel cloned from human heart: functional analysis after stable mammalian cell culture expression”, J. Gen. Physiol., 101:513-543 (1993). • 2. Zhou, Z. et al., “Block of HERG potassium channels by the antihistamine astemizole and its metabolites desmethylastemizole and norastemizole”, J. Cardiovasc. Electrophysiol., 10(6):836-843 (1999).

T1 sequence (P22460 whole entry): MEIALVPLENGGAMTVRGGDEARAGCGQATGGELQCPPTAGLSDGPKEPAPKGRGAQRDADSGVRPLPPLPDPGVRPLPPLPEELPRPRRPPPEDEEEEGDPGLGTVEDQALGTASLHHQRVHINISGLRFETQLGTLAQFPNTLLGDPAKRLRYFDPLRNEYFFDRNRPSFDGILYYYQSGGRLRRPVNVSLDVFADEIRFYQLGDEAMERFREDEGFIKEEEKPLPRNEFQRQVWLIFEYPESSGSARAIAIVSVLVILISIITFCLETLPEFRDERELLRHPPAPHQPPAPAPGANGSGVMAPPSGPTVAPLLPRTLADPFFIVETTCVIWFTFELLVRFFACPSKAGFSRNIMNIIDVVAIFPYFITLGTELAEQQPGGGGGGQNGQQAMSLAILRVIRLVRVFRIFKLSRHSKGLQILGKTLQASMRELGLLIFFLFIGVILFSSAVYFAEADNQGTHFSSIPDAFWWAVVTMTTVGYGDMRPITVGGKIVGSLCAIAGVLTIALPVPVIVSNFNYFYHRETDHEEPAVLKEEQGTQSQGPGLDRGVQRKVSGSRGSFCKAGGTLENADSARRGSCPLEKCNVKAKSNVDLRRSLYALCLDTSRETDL

Point of comparison: `OCC(O)c1cncc(-c2nc(NCc3ccccc3)c3c(-c4ccccc4)ccn3n2)c1` (stereo not shown) [Example 14, 1-(5-(4-(Benzylamino)-5-phenylpyrrolo[1,2-f][1,2,4]triazin-2-yl)pyridin-3-yl)ethane-1,2-diol], “KV1_5% Inh L929 @0.3 μM” value 90.60%. Against it:
- 1-(1-(4- (benzylamino)-5- phenylpyrrolo [1,2-f][1,2,4] triazine-2-carbonyl) piperidin-4-yl)-1H- benzo[d]imidazol- 2(3H)-one [Example 121] — lower, 38.74%
- 4-(4-(benzylamino)-5- phenylpyrrolo [1,2-f][1,2,4] triazin-2-yl) picolinic acid [Example 95] — higher, 98.08%
- CC(Nc1nc(-c2cncc(S(N)(=O)=O)c2)nn2ccc(-c3ccccc3)c12)c1ccccc1 (stereo not shown) [Example 8, 5-(5-Phenyl-4-(1-phenylethylamino)pyrrolo[1,2-f][1,2,4]triazin-2-yl)pyridine-3-sulfonamide] — higher, 95.79%
- OCC(O)c1nc(NCc2ccccc2)c2c(-c3ccccc3)ccn2n1 (stereo not shown) [Example 18, 1-(4-(Benzylamino)-5-phenylpyrrolo[1,2-f][1,2,4]triazin-2-yl)ethane-1,2-diol] — lower, 47.37%
- CC(O)c1cncc(-c2nc(NCc3ccccc3)c3c(-c4ccccc4)ccn3n2)c1 (stereo not shown) [Example 21, 1-(5-(4-(Benzylamino)-5-phenylpyrrolo[1,2-f][1,2,4]triazin-2-yl)pyridin-3-yl)ethanol] — higher, 96.63%

same assay, conditions: L929, 0.3 μM; patch clamped mammalian L-929 cells stably expressing human Kv1.5; read-out: KV1_5% Inh L929 @0.3 μM

Point of comparison: `OCC(O)c1cncc(-c2nc(NCc3ccccc3)c3c(-c4ccccc4)ccn3n2)c1` (stereo not shown) [Example 14, 1-(5-(4-(Benzylamino)-5-phenylpyrrolo[1,2-f][1,2,4]triazin-2-yl)pyridin-3-yl)ethane-1,2-diol], inhibition at 0.3 µM 95%. Against it:
- N#C[C@@H]1C[C@H]1c1nc(NCc2ccccn2)c2c(-c3ccccc3)ccn2n1 (racemic) [Example 43, (±)-2-(5-Phenyl-4-(pyridin-2-ylmethylamino)pyrrolo[1,2-f][1,2,4]triazin-2-yl)cyclopropanecarbonitrile] — higher, 98.6%
- NC(=O)[C@@H]1C[C@H]1c1nc(NCc2ccccn2)c2c(-c3ccccc3)ccn2n1 (racemic) [Example 44, (±)-2-(5-Phenyl-4-(pyridin-2-ylmethylamino)pyrrolo[1,2-f][1,2,4]triazin-2-yl)cyclopropanecarboxamide] — higher, 98.8%
- NS(=O)(=O)c1cncc(-c2nc(NCc3ccccc3)c3c(-c4ccccc4)ccn3n2)c1 [Example 1, 5-(4-(Benzylamino)-5-phenylpyrrolo[1,2-f][1,2,4]triazin-2-yl)pyridine-3-sulfonamide] — higher, 96.5%
- NS(=O)(=O)c1cncc(-c2nc(NCc3ccccn3)c3c(-c4ccccc4)ccn3n2)c1 [Example 2, 5-(5-Phenyl-4-(pyridin-2-ylmethylamino)pyrrolo[1,2-f][1,2,4]triazin-2-yl)pyridine-3-sulfonamide] — higher, 98.5%
- CS(=O)(=O)Nc1cncc(-c2nc(NCc3ccccn3)c3c(-c4ccccc4)ccn3n2)c1 [Example 3, N-(5-(5-Phenyl-4-(pyridin-2-ylmethylamino)pyrrolo[1,2-f][1,2,4]triazin-2-yl)pyridin-3-yl)methanesulfonamide] — lower, 94.1%
- NC(=O)CC(=O)Nc1cncc(-c2nc(NCc3ccccc3)c3c(-c4ccccc4)ccn3n2)c1 [Example 4, N1-(5-(4-(Benzylamino)-5-phenylpyrrolo[1,2-f][1,2,4]triazin-2-yl)pyridin-3-yl)malonamide] — higher, 97.3%
- NS(=O)(=O)c1nc(-c2nc(NCc3ccccn3)c3c(-c4ccccc4)ccn3n2)cs1 [Example 5, 4-(5-Phenyl-4-(pyridin-2-ylmethylamino)pyrrolo[1,2-f][1,2,4]triazin-2-yl)thiazole-2-sulfonamide] — higher, 98.5%
- NS(=O)(=O)c1cncc(-c2nc(NCc3ccccn3)c3c(-c4ccc(F)cc4)ccn3n2)c1 [Example 6, 5-(5-(4-Fluorophenyl)-4-(pyridin-2-ylmethylamino)pyrrolo[1,2-f][1,2,4]triazin-2-yl)pyridine-3-sulfonamide] — lower, 91.7%
- COc1ccc(-c2nc(NCc3ccccn3)c3c(-c4ccc(OC)nc4)ccn3n2)cn1 [Example 7, 2,5-Bis(6-methoxypyridin-3-yl)-N-(pyridin-2-ylmethyl)pyrrolo[1,2-f][1,2,4]triazin-4-amine] — higher, 97.8%
- CC(Nc1nc(-c2cncc(S(N)(=O)=O)c2)nn2ccc(-c3ccccc3)c12)c1ccccc1 (stereo not shown) [Example 8, 5-(5-Phenyl-4-(1-phenylethylamino)pyrrolo[1,2-f][1,2,4]triazin-2-yl)pyridine-3-sulfonamide] — higher, 97.5%
- NC(=O)c1cncc(-c2nc(NCc3ccccn3)c3c(-c4ccccc4)ccn3n2)c1 [Example 9, 5-(5-Phenyl-4-(pyridin-2-ylmethylamino)pyrrolo[1,2-f][1,2,4]triazin-2-yl)nicotinamide] — higher, 98.4%
- O=C(O)c1cncc(-c2nc(NCc3ccccn3)c3c(-c4ccccc4)ccn3n2)c1 [Example 10, 5-(5-Phenyl-4-(pyridin-2-ylmethylamino)pyrrolo[1,2-f][1,2,4]triazin-2-yl)nicotinic acid] — lower, 86%
- c1ccc(CNc2nc(-c3cncc(-c4nnn[nH]4)c3)nn3ccc(-c4ccccc4)c23)cc1 [Example 11, 2-(5-(1H-Tetrazol-5-yl)pyridin-3-yl)-N-benzyl-5-phenylpyrrolo[1,2-f][1,2,4]triazin-4-amine] — lower, 93.4%
- O=C(O)c1cncc(-c2nc(NCc3ccccc3)c3c(-c4ccccc4)ccn3n2)c1 [Example 12, 5-(4-(Benzylamino)-5-phenylpyrrolo[1,2-f][1,2,4]triazin-2-yl)nicotinic acid] — lower, 88.2%
- NC(=O)c1cncc(-c2nc(NCc3ccccc3)c3c(-c4ccccc4)ccn3n2)c1 [Example 13, 5-(4-(Benzylamino)-5-phenylpyrrolo[1,2-f][1,2,4]triazin-2-yl)nicotinamide] — higher, 95.9%
- NS(=O)(=O)c1cncc(-c2nc(NCc3ccccc3)c3c(-c4ccccc4)ccn3n2)n1 [Example 15, 6-(4-(Benzylamino)-5-phenylpyrrolo[1,2-f][1,2,4]triazin-2-yl)pyrazine-2-sulfonamide] — higher, 95.5%
- NS(=O)(=O)c1cc(-c2nc(NCc3ccccc3)c3c(-c4ccccc4)ccn3n2)cnc1O [Example 16, 5-(4-(Benzylamino)-5-phenylpyrrolo[1,2-f][1,2,4]triazin-2-yl)-2-hydroxypyridine-3-sulfonamide] — lower, 91.1%
- CC(C)(O)c1cncc(-c2nc(NCc3ccccc3)c3c(-c4ccccc4)ccn3n2)c1 [Example 17, 2-(5-(4-(Benzylamino)-5-phenylpyrrolo[1,2-f][1,2,4]triazin-2-yl)pyridin-3-yl)propan-2-ol] — lower, 92.4%
- OCC(O)c1nc(NCc2ccccc2)c2c(-c3ccccc3)ccn2n1 (stereo not shown) [Example 18, 1-(4-(Benzylamino)-5-phenylpyrrolo[1,2-f][1,2,4]triazin-2-yl)ethane-1,2-diol] — lower, 40.9%
- O=C(O)CCc1cncc(-c2nc(NCc3ccccc3)c3c(-c4ccccc4)ccn3n2)c1 [Example 19, 3-(5-(4-(Benzylamino)-5-phenylpyrrolo[1,2-f][1,2,4]triazin-2-yl)pyridin-3-yl)propanoic acid] — lower, 91.3%
- OCc1cncc(-c2nc(NCc3ccccc3)c3c(-c4ccccc4)ccn3n2)c1 [Example 20, (5-(4-(Benzylamino)-5-phenylpyrrolo[1,2-f][1,2,4]triazin-2-yl)pyridin-3-yl)methanol] — higher, 96.6%
- CC(O)c1cncc(-c2nc(NCc3ccccc3)c3c(-c4ccccc4)ccn3n2)c1 (stereo not shown) [Example 21, 1-(5-(4-(Benzylamino)-5-phenylpyrrolo[1,2-f][1,2,4]triazin-2-yl)pyridin-3-yl)ethanol] — lower, 93.2%
- COC(=O)C1CCCN1C(=O)c1cncc(-c2nc(NCc3ccccc3)c3c(-c4ccccc4)ccn3n2)c1 (stereo not shown) [Example 22, Methyl 1-(5-(4-(benzylamino)-5-phenylpyrrolo[1,2-f][1,2,4]triazin-2-yl)nicotinoyl)pyrrolidine-2-carboxylate] — higher, 95.1%
- NS(=O)(=O)c1cncc(-c2nc(NCCOc3cnccn3)c3c(-c4ccccc4)ccn3n2)c1 [Example 23, 5-(5-Phenyl-4-((2-(pyrazin-2-yloxy)ethyl)amino)pyrrolo[2,1-f][1,2,4]triazin-2-yl)pyridine-3-sulfonamide] — lower, 91.6%

— patent US9050345B2, “Pyrrolotriazines as potassium ion channel inhibitors” (BRISTOL-MYERS SQUIBB COMPANY, priority 2013, dated 2015)
